How the values were obtained:
[1] = system: transplanted rice (Oryza sativa); experiment: Crop injury test on rice in water leakage condition; format: in vivo; conditions: 0.15 g/a; water leakage 2 cm/day x 3 days; treated on third day after transplantation; 3 weeks after treatment
Description: Crop Injury Test on Rice in Water Leakage Condition A mixed soil of alluvial soil and diluvial soil was placed in a plastic pot perforated at the bottom of 1/10000 are, water was poured therein and mixed, and then rice seedlings at 2.5th leaf stage were transplanted. Water leakage treatment was carried out by placing the pot in a plastic vat, and controlling the amount of water in the vat kept at a condition of 2 cm/day×3 days. The pot was put in a green house at 25 to 30° C., on third day after transplantation, the wettable powder of the present invention prepared according to Formulation Example 1 was diluted with water so as to give a predetermined formulation amount, and the surface of the water was treated with the diluted wettable powder. The crop injury on rice was investigated 3 weeks after treatment with the herbicide according to the criteria indicated in Test Example 1.

Monochoria vaginalis [2] = experiment: Herbicidal effect test in submerged condition by treatment before weed-generation (1); format: in vivo; conditions: 0.64 g/a, water surface treated on day of sowing, 3 weeks after treatment
Summary of the method: (§1)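 Effect grade 0–5 from herbicidal rate, 3 wk after water-surface treatment. Flooded alluvial soil, 4 cm depth, pre-emergence dosing on sowing day; rice transplanted at 2.5 leaf; 25 to 30° C greenhouse.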

Scirpus juncoides [3] = experiment: as above; format: in vivo; conditions: 0.64 g/a, water surface treated on day of sowing, 3 weeks after treatment
Summary of the method: as §1

Echinochloa crus-galli [4] = experiment: as above; format: in vivo; conditions: 0.64 g/a, water surface treated on day of sowing, 3 weeks after treatment
Summary of the method: as §1

Monochoria vaginalis [5] = experiment: Herbicidal effect test in submerged condition by treatment during weed-growth stage (1); format: in vivo; conditions: 0.64 g/a, treated at 1st to 2nd leaf stage, 3 weeks after treatment
Summary of the method: (§2)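 Paddy-soil pots flooded to 4 cm water depth were sown and grown in a greenhouse at 25 to 30° C until weeds reached 1st to 2nd leaf stage. A wettable powder diluted in water to a predetermined formulation amount was applied to the water surface. Herbicidal effect was scored 3 weeks after treatment against set criteria.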

Scirpus juncoides [6] = experiment: as above; format: in vivo; conditions: 0.64 g/a, treated at 1st to 2nd leaf stage, 3 weeks after treatment
Summary of the method: as §2

Echinochloa crus-galli [7] = experiment: as above; format: in vivo; conditions: 0.64 g/a, treated at 1st to 2nd leaf stage, 3 weeks after treatment
Summary of the method: as §2

[8] = system: rice transplanted at a depth of 0 cm; experiment: Herbicidal effect test in submerged condition by treatment before weed-generation (2); format: in vivo, Oryza sativa; conditions: 0.3 g/a; submerged paddy soil pot, seedlings fixed to paddy surface with roots exposed; 3 weeks after treatment
Description: (§3) Herbicidal Effect Test in Submerged Condition by Treatment Before Weed-Generation (2)
(§4) Paddy surface soil was placed in a plastic pot of 1/10000 are, water was poured therein and mixed. After seeds of Scirpus juncoides were sown, paddy surface soil was added by 2 cm, and submerged with water, and then seeds of Echinochloa crus-galli, Scirpus juncoides, Monochoria vaginalis, Rotala indica and Lindernia pyxidaria were sown together. In addition, rice seedlings at 2.5th leaf stage were transplanted, and fixed to the paddy surface in a state where the roots were exposed on the other side. On the day when the seeds were sown, the wettable powder of the present invention prepared according to Formulation Example 1 was diluted with water so as to give a predetermined formulation amount, and the surface of the water was treated with the diluted wettable powder. The plants were grown by putting the pot in a green house at 25 to 30° C. The herbicidal effect for each plant was investigated 3 weeks after treatment with the herbicide according to the criteria indicated in Test Example 1.

Lindernia pyxidaria = experiment: as above; format: in vivo; conditions: 0.3 g/a; submerged paddy soil pot, water surface treated on day of sowing; 3 weeks after treatment
Description: as §3, §4

[9] = system: transplanted rice (Oryza sativa); experiment: as above; format: in vivo; conditions: 0.3 g/a; submerged paddy soil pot, rice seedlings at 2.5th leaf stage transplanted; 3 weeks after treatment
Description: as §3, §4

Rotala indica = experiment: as above; format: in vivo; conditions: 0.3 g/a; submerged paddy soil pot, water surface treated on day of sowing; 3 weeks after treatment
Description: as §3, §4

Monochoria vaginalis [10] = experiment: as above; format: in vivo; conditions: 0.3 g/a; submerged paddy soil pot, water surface treated on day of sowing; 3 weeks after treatment
Description: as §3, §4

Scirpus juncoides [11] = experiment: as above; format: in vivo; conditions: 0.3 g/a; submerged paddy soil pot, water surface treated on day of sowing; 3 weeks after treatment
Description: as §3, §4

Echinochloa crus-galli [12] = experiment: as above; format: in vivo; conditions: 0.3 g/a; submerged paddy soil pot, water surface treated on day of sowing; 3 weeks after treatment
Description: as §3, §4

Row | SMILES | crop injury on rice, a: transplanted rice (Oryza sativa) [1] | herbicidal effect, C: Monochoria vaginalis (Monochoria vaginalis [2]) | herbicidal effect, B: Scirpus juncoides (Scirpus juncoides [3]) | herbicidal effect, A: Echinochloa crus-galli (Echinochloa crus-galli [4]) | herbicidal effect, C: Monochoria vaginalis (Monochoria vaginalis [5]) | herbicidal effect, B: Scirpus juncoides (Scirpus juncoides [6]) | herbicidal effect, A: Echinochloa crus-galli (Echinochloa crus-galli [7]) | herbicidal effect, g: rice transplanted at a depth of 0 cm [8] | herbicidal effect, O: Lindernia pyxidaria (Lindernia pyxidaria) | herbicidal effect, a: transplanted rice (Oryza sativa) [9] | herbicidal effect, N: Rotala indica (Rotala indica) | herbicidal effect, C: Monochoria vaginalis (Monochoria vaginalis [10]) | herbicidal effect, B: Scirpus juncoides (Scirpus juncoides [11]) | herbicidal effect, A: Echinochloa crus-galli (Echinochloa crus-galli [12])
1 | COc1cc(OC)nc(NC(=O)NS(=O)(=O)c2c(C3=NOCCO3)c(Cl)nn2C)n1 [Comparative Compound 1] | 3 (Herbicidal rate 40% or more and less than 70%) | 5 (Herbicidal rate 90% or more (almost complete death)) | 5 (Herbicidal rate 90% or more (almost complete death)) | 5 (Herbicidal rate 90% or more (almost complete death)) | 5 (Herbicidal rate 90% or more (almost complete death)) | 5 (Herbicidal rate 90% or more (almost complete death)) | 5 (Herbicidal rate 90% or more (almost complete death)) | 3 (Herbicidal rate 40% or more and less than 70%) | 5 (Herbicidal rate 90% or more (almost complete death)) | 0 (Herbicidal rate 5% or less (little effect)) | 5 (Herbicidal rate 90% or more (almost complete death)) | 5 (Herbicidal rate 90% or more (almost complete death)) | 5 (Herbicidal rate 90% or more (almost complete death)) | 5 (Herbicidal rate 90% or more (almost complete death))
2 | COc1cc(OC)nc(NC(=O)NS(=O)(=O)c2c(C3=NOCCO3)c(C)nn2C)n1 [Comparative Compound 2] | 5 (Herbicidal rate 90% or more (almost complete death)) | 5 (Herbicidal rate 90% or more (almost complete death)) | 5 (Herbicidal rate 90% or more (almost complete death)) | 5 (Herbicidal rate 90% or more (almost complete death)) | 5 (Herbicidal rate 90% or more (almost complete death)) | 5 (Herbicidal rate 90% or more (almost complete death)) | 5 (Herbicidal rate 90% or more (almost complete death)) | 4 (Herbicidal rate 70% or more and less than 90%) | 5 (Herbicidal rate 90% or more (almost complete death)) | 4 (Herbicidal rate 70% or more and less than 90%) | 5 (Herbicidal rate 90% or more (almost complete death)) | 5 (Herbicidal rate 90% or more (almost complete death)) | 5 (Herbicidal rate 90% or more (almost complete death)) | 5 (Herbicidal rate 90% or more (almost complete death))

Reference: patent publication US7709636B2, “Pyrazole sulfonylurea compound and herbicide” (Nissan Chemical Industries, Ltd., priority 2004, dated 2010)
